Some results are limits rather than exact numbers.

For data set [1], the system named is Influenza strain A549 A/WSN/33 (H1N1). Briefly: microbe, parasite or virus in culture. Particulars: Influenza A virus, A549, 20 h, A549 cells, influenza A/WSN/33 (H1N1), 20 hours incubation; read-out: A549_A(H1N1) EC50. Type of data set: cell-based.
Another data set is described as follows: in vitro. Particulars: human, CC50, uninfected A549 cells, CellTiter-Glo.

As for `C[C@@H]1/C=C/COc2cccc3c2[C@H](c2ccccc2SC3)N2CN1C(=O)c1c(O)c(=O)ccn12` (single isomer, unassigned) [Compound 138C, (9*R,17a*R,E)-12-hydroxy-9-methyl-2,6,9,17a-tetrahydro-3,4-(epiprop[1]en[1]yl[3]ylidene)-10,17-methanobenzo[6,7]thiepino[4,5-c]pyrido[1,2-f][1]oxa[5,6,9]triazacyclotridecine-11,13-dione], the EC50 in data set [1] was greater than 100 nM. This compound also had a CC50 in “in vitro” greater than 200 nM.

`O=C1c2c(O)c(=O)ccn2N2CN1CC/C=C/COc1ccccc1[C@@H]2c1ccccc1` [Compound 10A, (2S,E)-15-hydroxy-2-phenyl-12,13,14,16-tetrahydro-11H-4-oxa-1(1,3)-pyrido[2,1-f][1,2,4]triazina-3(1,2)-benzenacyclononaphan-6-ene-14,16-dione]: in data set [1], the EC50 is greater than 1000 nM. The CC50 in “in vitro” is greater than 2000 nM.

Take `O=C1c2c(O)c(=O)ccn2N2CN1CC/C=C\COc1cccc3c1[C@@H]2c1ccccc1SC3` (single isomer, unassigned) [Compound 37A, (1*R,13Z)-7-hydroxy-16-oxa-23-thia-2,3,10-triazahexacyclo[15.12.1.12,10.03,8.021,30.024,29]hentriaconta-4,7,13,17,19,21(30),24(29),25,27-nonaene-6,9-dione]: the EC50 in data set [1] was 12200 nM. This compound showed a CC50 in “in vitro” greater than 2000 nM.

Take `O=C1c2c(O)c(=O)ccn2N2CN1C1(/C=C/COc3ccccc3[C@H]2c2ccccc2)CC1` [Compound 79B, (18′R,E)-12′-hydroxy-18′-phenyl-6′H,18′H-spiro[cyclopropane-1,9′-[10,17]methanobenzo[b]pyrido[1,2-f][1]oxa[5,6,9]triazacyclotridecine]-11′,13′-dione]: the concentration giving a half-maximal response (EC50) in data set [1] was 6 nM. For the same compound, the CC50 in the data set “in vitro” was greater than 1000 nM.

In the case of `O=C1c2c(O)c(=O)ccn2N2CN1CC/C=C\COc1cccc3c1[C@H]2c1ccccc1SC3` (single isomer, unassigned) [Compound 37B, (1*S,13Z)-7-hydroxy-16-oxa-23-thia-2,3,10-triazahexacyclo[15.12.1.12,10.03,8.021,30.024,29]hentriaconta-4,7,13,17,19,21(30),24(29),25,27-nonaene-6,9-dione], in data set [1], the EC50 was determined as 4 nM. Also, the CC50 in the data set “in vitro” was greater than 200 nM.

As to `CC[C@@H]1/C=C/COc2cc(F)c(F)c3c2[C@H](c2ccccc2SC3)N2CN1C(=O)c1c(O)c(=O)ccn12` (single isomer, unassigned) [Compound 126AB, (9*R,17a*R,E)-9-ethyl-24,25-difluoro-12-hydroxy-2,6,9,17a-tetrahydro-3,4-(epiprop[1]en[1]yl[3]ylidene)-10,17-methanobenzo[6,7]thiepino[4,5-c]pyrido[1,2-f][1]oxa[5,6,9]triazacyclotridecine-11,13-dione], in data set [1], the EC50 is greater than 100 nM. Also, the CC50 in “in vitro” was greater than 200 nM.

As for `O=C1c2c(O)c(=O)ccn2N2CN1C/C=C\COc1c(ccc(F)c1F)[C@H]2c1ccccc1C(F)F` (single isomer, unassigned) [Compound 165A, (18*R,Z)-18-(2-(difluoromethyl)phenyl)-3,4-difluoro-12-hydroxy-6,9-dihydro-18H-10,17-methanobenzo[b]pyrido[1,2-f][1]oxa[5,6,9]triazacyclotridecine-11,13-dione], the EC50 in data set [1] amounted to 7.2 nM. The compound further displayed a cytotoxic concentration (CC50) in “in vitro” greater than 100 nM.

In the case of `Cc1ccccc1[C@@H]1c2ccc(F)c(F)c2OC/C=C\CN2CN1n1ccc(=O)c(O)c1C2=O` (single isomer, unassigned) [Compound 155A, (18*R,*Z)-3,4-difluoro-12-hydroxy-18-(o-tolyl)-6,9-dihydro-18H-10,17-methanobenzo[b]pyrido[1,2-f][1]oxa[5,6,9]triazacyclotridecine-11,13-dione], the EC50 in data set [1] was 1.2 nM. The 50% cytotoxic concentration (CC50) in the data set “in vitro” is greater than 100 nM.

As to `O=C1c2c(O)c(=O)ccn2N2CN1CC/C=C/CCOc1ccccc1[C@@H]2c1ccccc1` (single isomer, unassigned) [Compound 65D, (2*S,*E)-15-hydroxy-2-phenyl-12,13,14,16-tetrahydro-11H-4-oxa-1(1,3)-pyrido[2,1-f][1,2,4]triazina-3(1,2)-benzenacyclodecaphan-7-ene-14,16-dione], the EC50 in data set [1] worked out at 66 nM. This compound also came in with a CC50 in “in vitro” greater than 2000 nM.

In the case of `COc1ccccc1[C@@H]1c2cccc(F)c2OC/C=C\CN2CN1n1ccc(=O)c(O)c1C2=O` (single isomer, unassigned) [Compound 117A, (18*R,*Z)-4-fluoro-12-hydroxy-18-(2-methoxyphenyl)-6,9-dihydro-18H-10,17-methanobenzo[b]pyrido[1,2-f][1]oxa[5,6,9]triazacyclotridecine-11,13-dione], the half-maximal effective concentration (EC50) in data set [1] came out at 29 nM. Also, the CC50 in the data set “in vitro” is greater than 200 nM.

`O=C1c2c(O)c(=O)ccn2N2CN1CCCCCOc1ccccc1C2c1ccccc1` (stereo not drawn) [Compound 9, 15-hydroxy-2-phenyl-12,13,14,16-tetrahydro-11H-4-oxa-1(1,3)-pyrido[2,1-f][1,2,4]triazina-3(1,2)-benzenacyclononaphane-14,16-dione]: the EC50 in data set [1] came to 453 nM. Further, the CC50 in the data set “in vitro” was greater than 2000 nM.

With `C[C@@H]1/C=C/COc2c(ccc(F)c2F)[C@H](c2ccccc2)N2CN1C(=O)c1c(O)c(=O)ccn12` (single isomer, unassigned) [Compound 148BA, (9*R,18*S,*E)-3,4-difluoro-12-hydroxy-9-methyl-18-phenyl-6,9-dihydro-18H-10,17-methanobenzo[b]pyrido[1,2-f][1]oxa[5,6,9]triazacyclotridecine-11,13-dione], in data set [1], the EC50 was 2600 nM. In addition, the CC50 in the data set “in vitro” is greater than 10000 nM.

As to `C[C@@H]1C/C=C/COc2c(F)cccc2[C@H](c2ccccc2)N2CN1C(=O)c1c(O)c(=O)ccn12` (single isomer, unassigned) [Compound 100BB, (2*S,9*R,*E)-33-fluoro-15-hydroxy-9-methyl-2-phenyl-12,13,14,16-tetrahydro-11H-4-oxa-1(1,3)-pyrido[2,1-f][1,2,4]triazina-3(1,2)-benzenacyclononaphan-6-ene-14,16-dione], the EC50 in data set [1] was found to be 1160 nM. The compound further came in with a CC50 in the data set “in vitro” of 32500 nM.

Consider `O=C1c2c(O)c(=O)ccn2N2CN1CCCCCOc1cccc3c1C2c1ccccc1SC3` (stereo not drawn) [Compound 48], for which, in data set [1], the concentration for a half-maximal effect (EC50) turned out to be 32 nM. Besides, the CC50 in “in vitro” was greater than 2000 nM.

Take `O=C1c2c(O)c(=O)ccn2N2CN1CCC/C=C\c1ccccc1[C@H]2c1ccccc1` (single isomer, unassigned) [Compound 54A, (16*R,*Z)-4-hydroxy-16-phenyl-7,8,9,16-tetrahydro-6,17-methanobenzo[k]pyrido[1,2-b][1,2,5]triazacyclotridecine-3,5-dione]: the EC50 in data set [1] is greater than 1000 nM. The CC50 in “in vitro” is greater than 2000 nM.

As for `C[C@H]1N2C/C=C/COc3c(F)cccc3[C@H](c3ccccc3)N1n1ccc(=O)c(O)c1C2=O` (single isomer, unassigned) [Compound 91B, (18*S,19*S,E)-4-fluoro-12-hydroxy-19-methyl-18-phenyl-6,9-dihydro-18H-10,17-methanobenzo[b]pyrido[1,2-f][1]oxa[5,6,9]triazacyclotridecine-11,13-dione], the EC50 in data set [1] was greater than 500 nM. In “in vitro”, the CC50 is greater than 1000 nM.

With `CC[C@@H]1/C=C\COc2cccc3c2[C@@H](c2ccccc2SC3)N2CN1C(=O)c1c(O)c(=O)ccn12` [Compound 92BB, (13R,21aS,Z)-13-ethyl-16-hydroxy-6,10,13,21a-tetrahydro-7,8-(epiprop[1]en[1]yl[3]ylidene)-14,21-methanobenzo[6,7]thiepino[4,5-c]pyrido[1,2-f][1]oxa[5,6,9]triazacyclotridecine-15,17-dione], the EC50 in data set [1] worked out at 1.5 nM. Further, in the data set “in vitro”, the CC50 is greater than 100 nM.

In the case of `O=C1c2c(O)c(=O)ccn2N2CN1C/C=C\COc1c(F)cccc1[C@H]2c1cccc(F)c1` (single isomer, unassigned) [Compound 59A, (18*R,Z)-4-fluoro-18-(3-fluorophenyl)-12-hydroxy-6,9-dihydro-18H-10,17-methanobenzo[b]pyrido[1,2-f][1]oxa[5,6,9]triazacyclotridecine-11,13-dione], in data set [1], the EC50 was determined as 5 nM.

As to `CC[C@H]1/C=C/COc2cccc3c2[C@@H](c2ccccc2SC3)N2CN1C(=O)c1c(O)c(=O)ccn12` [Compound 92BA, (9S,17aS,E)-9-ethyl-12-hydroxy-2,6,9,17a-tetrahydro-3,4-(epiprop[1]en[1]yl[3]ylidene)-10,17-methanobenzo[6,7]thiepino[4,5-c]pyrido[1,2-f][1]oxa[5,6,9]triazacyclotridecine-11,13-dione], in data set [1], the EC50 was determined as 0.7 nM.

For `O=C1c2c(O)c(=O)ccn2N2CN1[C@]1(/C=C/COc3cc(F)c(F)c4c3[C@H]2c2ccccc2SC4)CCOC1` (single isomer, unassigned) [Compound 176BB, (3*S, 17a′*S,*E)-24′,25′-difluoro-12′-hydroxy-2′,4,5,17a′-tetrahydro-2H,6′H-spiro[furan-3,9′-[3,4](epiprop[1]en[1]yl[3]ylidene)[10,17]methanobenzo[6,7]thiepino[4,5-c]pyrido[1,2-f][1]oxa[5,6,9]triazacyclotridecine]-11′,13′-dione], the EC50 in data set [1] worked out at 1.4 nM.

On to `O=C1c2c(O)c(=O)ccn2N2CN1[C@H]1C[C@H]1CCOc1cccc3c1[C@H]2c1ccccc1SC3` (stereo in doubt) [Compound 166B, cis-(11a*RS,12a*RS,13S,20a*S)-15-hydroxy-6,11,11a,12,12a,20a-hexahydro-10H-7,8-(epiprop[1]en[1]yl[3]ylidene)-13,20-methanobenzo[6,7]thiepino[4,5-c]cyclopropa[j]pyrido[1,2-f][1]oxa[5,6,9]triazacyclotridecine-14,16-dione], for which, in data set [1], the EC50 came out at 28 nM.

As for `CC[C@H]1/C=C/COc2c(ccc(F)c2F)[C@H](c2ccccc2C)N2CN1C(=O)c1c(O)c(=O)ccn12` (single isomer, unassigned) [Compound 167BA, (9*S,18*S,E)-9-ethyl-3,4-difluoro-12-hydroxy-18-(o-tolyl)-6,9-dihydro-18H-10,17-methanobenzo[b]pyrido[1,2-f][1]oxa[5,6,9]triazacyclotridecine-11,13-dione], in data set [1], the EC50 is greater than 50 nM.

Source of the values: patent US11312727B1, “Macrocyclic flu endonuclease inhibitors” (Janssen BioPharma, Inc., priority 2018, dated 2022).
